Values quoted from earlier work, collected in patent US8273732B2, “Compositions for combating beta-lactamase-medicated antibiotic resistance using beta-lactamase inhibitors useful for injection” (Venus Remedies Limited, priority 2004, dated 2012).
In brackets after ≈: the same amount, converted by molar mass. Where a name gives a salt, the structure may show the parent alone.

How the values were obtained:
[1] = tested on: Acinetobacter baumannii; conditions: 156 clinical isolates of A. baumannii

solubility in ethanol (ethanol) | solubility in methanol (methanol) | solubility in water (water) | SMILES | MIC (90) [1]
very slightly soluble | sparingly soluble | readily soluble | CO/N=C(\C(=O)N[C@@H]1C(=O)N2C(C(=O)O)=C(CSc3nc(=O)c(=O)[nH]n3C)CS[C@H]12)c1csc(N)n1 [ceftriaxone sodium, (6R,7R)-7-[2-(2-amino-4-thiazolyl)glyoxylamido]-8-oxo-3-[[(1,2,5,6-tetrahydro-2-methyl-5,6-dioxo-as-triazin-3-yl)thio]methyl]-5-thia-1-azabicyclo[4.2.0]oct-2-ene-2-carboxylic acid, 7^2-(Z)-(O-methyloxime), disodium salt, sesquaterhydrate] | 
 |  |  | CC1(C)[C@H](C(=O)O)N2C(=O)C[C@H]2S1(=O)=O [Sulbactam, sulbactam] | 32 µg/mL (≈ 137 µM)
